“Also recorded” adds a separate entry of the source.
What was measured:
HSV-1 and HSV-2 = details: prior studies (Cheshenko, 2003; 2007); cited from earlier work
HSV-2 [1] = assay: HSV-2 plaque assay after pretreatment with Akt pharmacological inhibitors; assay type: cell-based; details: CaSki, SK-N-SH or HaCAT cells pretreated 15 min with drug, infected with HSV-2 1 h, plaques counted 48 h pi
Experimental: FIG. 8A-8B: Pharmacological inhibitors of Akt signaling inhibit HSV-2 plaque formation. Cells (CaSki, SK-N-SH, or HaCAT) cells were pretreated for 15 minutes with each of the indicated drugs and then challenged with serial dilutions of HSV-2. The inoculum (and drug) were removed after 1 h, and then cells were overlaid with fresh medium; plaques were counted after 48 h incubation. Results are presented as percent pfu relative to control wells (treated with 0.1% DMSO) (a). Alternatively, cells were treated for 24 h with drugs alone (0.01% nonoxynol-9 (N9) is included as a positive toxicity control) and then cell viability determined by MTT assay (b).
Akt is a potential target for HSV treatment: A series of Akt pharmacological inhibitors being developed as adjunct therapy for cancer including MK-2206, an allosteric Akt inhibitor (Yap, 2011); inhibitor VIII, which binds to the pleckstrin homology domain of Akt and prevents subsequent phosphorylation as well as translocation of Akt to the plasma membrane (Calleja, 2009); miltefosine, a drug licensed for treatment of leishmaniasis and other protozoal infections that blocks Akt phosphorylation (Ruiter, 2003), and perifosine, a structural analogue of miltefosine in Phase 3 clinical trials for treatment of several cancers (Richardson, 2012) were tested. […]

[2] = system: HSV-induced Ca2+ response; assay: Calcium kinetic measurements (fura-2 fluorometry) in CaSki cells; assay type: cell-based, human
Experimental: FIG. 4A-4E: Akt is required for HSV-induced calcium release and treatment with the ionophore, ionomycin, partially overcomes the block to infection in Akt-silenced cells. CaSki cells were loaded with Calcium Green 72 h post-transfection with the indicated siRNA and synchronously mock-infected or infected with purified HSV-2(G). Live images were acquired 3 min post-temperature shift to 37° C. For these xyz images, the plasma membranes are red (medium gray in grayscale), nuclei are blue (darkest gray in grayscale), and Ca^2+ is green (lighter gray in grayscale); colocalization of Ca^2+ and plasma membrane is yellow (lightest gray in grayscale). Representative images from 4 independent experiments are shown; the grid bars indicate a distance of 9.2 micrometers (a). Transfected cells were loaded with fura-2, infected with purified HSV-2 (moi 2 pfu/cell) or mock-infected and the kinetics of Ca^2+ response monitored. The mean intracellular [Ca^2+] for 5×10^4 cells over the first 30 minutes was quantified; control cells were also pretreated with wortmannin or miltefosine and then infected with HSV-2 (b). The cumulative [Ca^2+] released over 1 hour was calculated from 4 wells, each containing 5×10^4 cells (mock-infected, HSV-2 infected in the absence or presence of wortmannin or miltefosine, or following treatment of uninfected cells with 1 μM of ionomycin) (c). […]

HSV-2(4674) = assay: Ganglion-epithelial cell ex vivo co-culture model
Experimental: Sacral ganglia were extracted from mice on day 7 following intravaginal infection with the indicated viral inoculum and co-cultured ex vivo with Vero cells in medium containing DMSO or 20 μM miltefosine. Culture supernatants were collected on the indicated days post-co-culture and viral growth monitored by plaque assay. Results are presented as pfu/ml (mean±sd) obtained from two independent experiments; each with sacral ganglia (d).
Sacral ganglia were removed from mice that had been vaginally infected with 5×10^4 or 5×10^5 pfu of HSV-2 on Day 7 and were then co-cultured with Vero cells in the absence or presence of 20 μM miltefosine. Media was removed on the indicated days post-co-culture and assayed for the presence of infectious virus by titering on Vero cells.
Ganglion-epithelial cell ex vivo co-cultures: Seven days pi, sacaral ganglia were excised from animals that been intravaginally infected with 5×10^4 or 5×10^5 pfu of HSV-2(4674). The tissue was co-cultured with confluent Vero cells in 60-mm Petri dishes containing DMEM supplemented with 0.1% DMSO (control) or with 20 μM of miltefosine. Culture supernatants were collected on days 2-7 post-co-culture and concentration of virus released into the media determined by plaque assay on Vero cells.

Akt = assay: Western blot of HSV-induced Akt phosphorylation (pS473-Akt1/2/3) in HaCAT cells; assay type: cell-based, human; details: HaCAT cells pretreated with drug, HSV-2(G) moi 10 pfu/cell
[3] = system: HSV-2 clinical isolates DT1 and DT2; details: CaSki cells pretreated
Experimental: CaSki cells were pretreated with control buffer or with miltefosine prior to Infection with an acyclovir susceptible (DT1) or acyclovir-resistant (DT2) isolate. Alternatively cells were pretreated with control buffer and acyclovir (dose) was added to the overlay media.
The HSV-2 clinical isolates 4674, DT1 (acyclovir susceptible) and DT2 (acyclovir resistant) were propagated on CaSki cells (Segarra, 2011)(Oram, 2000).
For plaque assays, cells were exposed to serial dilutions of virus for 1 h and then washed three times with phosphate buffered saline (PBS), pH 7.4, and overlaid with 199 medium containing 1% pooled human IgG. Plaques were counted by immunoassay using an anti-human IgG antibody peroxidase conjugate (Calbiochem) (Herold, 1991). In select experiments cells were pretreated with drugs that block Akt signaling or acyclovir was added to the overlay medium.

HSV-1 K26GFP = assay: Viral entry by confocal microscopy with HSV-1 K26GFP in CaSki cells; assay type: cell-based; details: CaSki cells pretreated with drug
Experimental: (§1) FIG. 3A-3C: Silencing of Akt inhibits viral entry independent of viral binding. Transfected CaSki cells were exposed to serial dilutions of HSV-2(G) at the moi (pfu/cell) indicated for 5 h at 4° C. The cell-bound viral particles were detected by analyzing Western blots of cell lysates for gD; blots were also probed with antibodies to total Akt (to assess silencing) and β-actin (control for protein loading) (a). Cells were transfected with siControl or siAkt123 and silencing confirmed by preparing Western blots of cell lysates 48 h post-transfection and probing for total Akt and β-actin expression (b). The siRNA-transfected cells were inoculated with HSV-2(G) and nuclear extracts were prepared and analyzed for the presence of the viral tegument protein VP16 by Western blotting; blots were probed with antibodies to histone-H1 as a nuclear extract control. […]
Two independent approaches were applied to determine if Akt contributes to viral entry. […] After incubation for 45 minutes, nuclear extracts were prepared and evaluated for VP16 by Western blot; histone H1 was included as a control for the nuclear extracts (FIG. 3b). […] Viral capsids were readily detected in the majority of siControl cells (73% and 82% 1 and 4 h pi, respectively), whereas viral capsids were detected in few siAkt cells (7% and 5.5%) (FIG. 3c). […]
Confocal microscopy: Viral entry was also monitored by confocal microscopy. […]

HSV-2 [4] = assay: VP16 nuclear transport as surrogate of viral entry; assay type: cell-based; details: 1 μM, treated immediately prior to infection, 1 pfu/cell
Experimental: as §1
FIG. 4A-4E: Akt is required for HSV-induced calcium release and treatment with the ionophore, ionomycin, partially overcomes the block to infection in Akt-silenced cells. […] Transfected cells were loaded with fura-2, infected with purified HSV-2 (moi 2 pfu/cell) or mock-infected and the kinetics of Ca^2+ response monitored. The mean intracellular [Ca^2+] for 5×10^4 cells over the first 30 minutes was quantified; control cells were also pretreated with wortmannin or miltefosine and then infected with HSV-2 (b). […]

NCCOB(c1ccccc1)c1ccccc1 [2-aminoethoxydiphenyl borate]
increase in [Ca2+] triggered by HSV (HSV-1 and HSV-2): blocked
viral entry (HSV-1 and HSV-2): blocked

CCCCCCCCCCCCCCCCOP(=O)([O-])OCC[N+](C)(C)C [miltefosine, 2-(hexadecoxy-oxido-phosphoryl)oxyethyl-trimethyl-azanium]
inhibition of HSV infection (plaque formation, pfu relative to control wells) (HSV-2 [1]): most potent
HSV-induced Ca2+ response ([2]; CaSki cells pretreated with drug (wortmannin 5 nM), HSV-2(G) moi 2 pfu/cell, first hour): blocked the HSV-induced Ca^2+ response; also recorded: prevented viral induced Ca^2+ response
cytotoxicity in ganglion ex vivo co-culture (HSV-2(4674); cells cultured in drug for one week): No cytotoxicity was observed
viral amplification in ganglion explant co-culture (HSV-2(4674); mouse sacral ganglia day 7 after vaginal HSV-2, co-cultured with Vero cells, 20 μM): blocked viral amplification
viral induced phosphorylation of Akt (Akt): blocked viral induced phosphorylation of Akt
activity against acyclovir susceptible and acyclovir resistant viruses in a plaque assay [3]: active against acyclovir susceptible and acyclovir resistant viruses
viral entry (confocal imaging with GFP labeled virus) (HSV-1 K26GFP): prevented viral entry

C[C@H](CCC(=O)O)C[C@H](C)C[C@H](C)C(=O)/C=C(\O)[C@H](C)C[C@H](C)C/C=C/[C@@H](C)[C@@H](O)[C@@H](C)[C@@H](O)C[C@@H]1CC[C@@](C)([C@H]2CC[C@@](C)([C@@H](C)O)O2)O1 [ionomycin]
susceptibility to HSV entry in Akt-silenced cells (nuclear VP16) (HSV-2 [4]): partially restored the susceptibility to HSV entry
Ca2+ release from siRNA-transfected cell populations ([2]; 1 μM, confocal imaging and fluorometry): triggered the release of a comparable amount of Ca2+
